Results reported in PMC10819019 (Pharmaceutics, 2024).

experiment: Metabolite profiling in rats (bile, plasma, liver); format: in vivo, male Sprague–Dawley rats; details: saxagliptin 100 mg/kg intraperitoneal injection, samples up to 4 h
Description: Male Sprague–Dawley (SD) rats (7 weeks old, 200–225 g) were purchased from SamTako Co. (Osan, Republic of Korea). The animals were acclimatized for one week in an animal facility at the College of Pharmacy, Kyungpook National University (Daegu, Republic of Korea). The Kyungpook National University Animal Care and Use Committee (KNU 2021-0120, 12 July 2021) approved the study protocol, conducted under the National Institutes of Health guidance for the care and use of laboratory animals. […] The bile duct was cannulated with polyethylene tubes (PE-10, Jungdo, Seoul, Republic of Korea) under isoflurane anesthesia (isoflurane vaporizer to 2% with oxygen flow at 0.8 L/min). […] Bile samples were then collected for 4 h. […] The liver tissues were immediately excised, gently washed with ice-cold saline-soaked wet tissue to remove the contaminated blood, and homogenized with 4 volumes of saline. Aliquots of plasma, bile, and 20% liver homogenates were stored at −80 °C until the analysis.
The liver homogenates were vortexed with the same volume of methanol/acetonitrile mixtures (1/1, v/v) and centrifuged (13,500× g, 10 min). The remaining pellets were reextracted twice, and pooled supernatants were dried and reconstituted with 50% methanol in water (100 μL) for LC-MS/MS analysis. Protein concentrations in the pellets were determined using a Bradford protein assay kit (Bio-Rad Laboratories, Hercules, CA, USA) with bovine serum albumin as a standard. The rat bile and plasma (200 μL) samples were vortexed with the same methanol/acetonitrile mixture volume (1/1, v/v). The mixture was centrifuged after vortexing, and the supernatants were dried to complete dryness and reconstituted with 50% methanol in water (100 μL) for LC-MS/MS analysis. The contents of biliverdin in the bile samples were analyzed by measuring ultraviolet absorbance at 380 nm using a microplate reader (Infinite M200 PRO, TECAN, Mannedorf, Switzerland) after 10-fold dilution with 50% methanol.

Compound	Metabolite detection in rat bile, plasma and liver tissues
NC(C(=O)N1C(C2=NC(C(=O)O)CS2)CC2CC21)C12CC3CC(CC(O)(C3)C1)C2 (stereo not shown) [Metabolite M3, Saxagliptin–cysteine conjugate]	observed in rats
NC(C(=O)N1C(C2=NC(C(=O)NCC(=O)O)CS2)CC2CC21)C12CC3CC(O)(CC(O)(C3)C1)C2 (stereo not shown) [Metabolite M6, 5-Hydroxysaxagliptin–cysteinylglycine conjugate]	observed in rats
N#CC1CC2CC2N1C(=O)C(N)C12CC3CC(CC(OC4OC(C(=O)O)C(O)C(O)C4O)(C3)C1)C2 (stereo not shown) [Metabolite M8, Saxagliptin-O-glucuronide]	observed in rat bile, plasma, and liver tissues
N#CC1CC2CC2N1C(=O)C(N)C12CC3CC(CC(OS(=O)(=O)O)(C3)C1)C2 (stereo not shown) [Metabolite M7, Saxagliptin-O-sulfate]	only found in rat bile
NC(C(=O)N1C(C2=NC(C(=O)NCC(=O)O)CS2)CC2CC21)C12CC3CC(CC(O)(C3)C1)C2 (stereo not shown) [Metabolite M5, Saxagliptin–cysteinylglycine conjugate]	found in rat bile, plasma, and liver tissues

experiment: Metabolite profiling in rat liver microsomes; format: in vitro ADME; details: microsomal incubation with 5-hydroxysaxagliptin in the presence of L-cysteine
Experimental: L-cysteine (100 mM), glutathione (2.5 mM), or UDPGA (5 mM) was added after pre-incubation with or without 100 mM L-cysteine at 37 °C for 5 min to an NADPH-generating system (1.3 mM of NADP^+, 3.3 mM of G6P, 1 unit/mL of G6PDH, and 3.3 mM of MgCl2) to initiate the microsomal reaction. The reaction was stopped by adding cold acetonitrile after microsomal incubation for 2 h.
In the presence of L-cysteine (100 mM) or glutathione (100 mM) in phosphate buffer (100 mM, pH of 7.4), 5-Hydroxysaxagliptin (100 μM) was incubated at 37 °C for 2 h. The supernatants were analyzed using high-resolution Orbitrap MS after incubation reaction termination and centrifugation.

Compound	Metabolite detection in incubate of 5-hydroxysaxagliptin with L-cysteine
NC(C(=O)N1C(C2=NC(C(=O)O)CS2)CC2CC21)C12CC3CC(O)(CC(O)(C3)C1)C2 (stereo not shown) [Metabolite M4, 5-Hydroxysaxagliptin–cysteine conjugate]	detected

same assay, conditions: saxagliptin 100 μM, RLM 1 mg/mL, NADPH-generating system and/or L-cysteine, 2 h

Compound	Metabolite detection in incubates of saxagliptin
NC(C(=O)N1C(C2=NC(C(=O)O)CS2)CC2CC21)C12CC3CC(CC(O)(C3)C1)C2 (stereo not shown) [Metabolite M3, Saxagliptin–cysteine conjugate]	formed in an enzyme-nonspecific manner
N=C1NC(C23CC4CC(CC(O)(C4)C2)C3)N2C1CC1CC12 (stereo not shown) [Metabolite M1, Saxagliptin cyclic amidine]	found in the incubation sample of saxagliptin with buffer solution (Figure 5a) and RLM (Figure 5c) in the presence of +L-cysteine
N#CC1CC2CC2N1C(=O)C(N)C12CC3CC(O)(CC(O)(C3)C1)C2 (stereo not shown) [Metabolite M2, 5-Hydroxysaxagliptin]	observed in rat liver microsomal incubation samples regardless of the addition of L-cysteine

experiment: not given; details: cited from earlier work

Compound	Stability on incubation with L-cysteine
Cc1cc2ncc(C(=O)NCC(C)(C)NCC(=O)N3CCC[C@H]3C#N)cn2n1 [anagliptin]	unstable
N[C@@H](CC(=O)N1CCn2c(nnc2C(F)(F)F)C1)Cc1cc(F)c(F)cc1F [sitagliptin]	stable
CC#CCn1c(N2CCC[C@@H](N)C2)nc2c1c(=O)n(Cc1nc(C)c3ccccc3n1)c(=O)n2C [linagliptin]	stable
Cn1c(=O)cc(N2CCC[C@@H](N)C2)n(Cc2ccccc2C#N)c1=O [alogliptin]	stable
